Source: paper PMC6511062, “Preclinical candidate for the treatment of visceral leishmaniasis that acts through proteasome inhibition” (Proceedings of the National Academy of Sciences of the …, 2019)
Values after ≈ are worked out from the molar mass of the structure shown. “Also recorded” adds a separate entry of the source. Where two headings read alike, the source gives them in different places.

Key:
[1] = tested on: TA1535; conditions: positive control
Procedure: (§1) oxidative metabolism system (S9-mix). The maximum concentration tested and […]
(§2) Compound 7a was tested in a bacterial mutation screening assay (Ames test) with Salmonella typhimurium TA1535, TA1537, TA98, TA100 and Escherichia coli WP2uvrA(pKM101) in the presence and absence of an exogenous mammalian […]
(§3) The bacterial mutation screening assay was a plate incorporation test carried out as previously described15 and according to current methodology. […]

[2] = tested on: TA100; conditions: positive control
Procedure: as §1, §2, §3

[3] = tested on: TA1537; test: Ames test, strain TA1537
Procedure: as §1, §2, §3

[4] = tested on: WP2 uvrA (pKM101); test: Ames test, strain WP2 uvrA (pKM101); conditions: with S9-mix, dose level 10 per plate, positive control
Procedure: as §1, §2, §3

[5] = tested on: TA98; test: Ames test, strain TA98; conditions: without S9-mix, dose level 1 per plate, positive control
Procedure: as §1, §2, §3

[6] = CAD (charged aerosol detector) solubility
[7] = tested on: THP-1 cells; test: Mammalian cell growth inhibition (THP-1); type: cell-based; conditions: Homo sapiens
Text: We hypothesized that, in view of their structural similarity, 1 and 2 probably shared the same mechanism of action.

[8] = Intrinsic clearance in mouse liver microsomes; type: in vitro ADME
Procedure: page 13: 4. Parasite assays T. cruzi4, Leishmania donovani axenic amastigote, cidal axenic amastigote and intra- macrophage drug sensitivity assays were conducted as previously described5,6. a. […] Instead of a single readout at 72 h, multiple identical plates were used and read at different time points (24, 48, 72 h). Rate of kill curves showing the luminescence signal at each time point for each concentration were plotted. 5. […] The rate of intrinsic clearance (CLint) of each test compound was then calculated using the following calculation: CLint(mL/min/g liver) = k x V x Microsomal protein yield Where V (mL/mg protein) is the incubation volume/mg protein added and microsomal protein yield is taken as 52.5 mg protein/g liver. Verapamil (0.5 μM) was used as a positive control to confirm acceptable assay performance. 6. Pharmacokinetic studies. a. Mouse and dog PK Mouse pharmacokinetic studies were conducted in male CD-1 mice and male beagle dogs. 3 animals per group were used for each study performed. A dose of 3 mg/kg was administered intravenously, in a bolus form to mice and infused over a 30 min period to dogs. For all the intravenous studies compound were dissolved in 5% DMSO/20% kleptose in saline. A dose of 10 mg/kg was orally administered by gavage to the two species in a suspension of 1% methylcellulose to investigate oral pharmacokinetics. S13

[9] = tested on: L. donovani intramacrophage amastigotes; test: L. donovani intramacrophage assay (amastigotes in differentiated THP-1 cells); type: cell-based, Leishmania donovani; conditions: for EC50: Leishmania donovani, L. donovani amastigotes in differentiated THP-1 cells, read-out: Intramacrophage EC50
Procedure: T. cruzi4, Leishmania donovani axenic amastigote, cidal axenic amastigote and intra-
macrophage drug sensitivity assays were conducted as previously described5,6. […]
5. Intrinsic clearance (CLint) […]
6. Pharmacokinetic studies. […]

[10] = tested on: Salmonella typhimurium TA1535, TA1537, TA98, TA100 and Escherichia coli WP2uvrA(pKM101); test: Bacterial mutation screening assay (Ames test), overall outcome; type: cell-based; conditions: presence and absence of S9-mix
Procedure: i. Bacterial Mutation (Ames) Assay
Compound 6 was tested in a bacterial mutation screening assay (Ames test) with Salmonella typhimurium TA1535, TA1537, TA98, TA100 and Escherichia coli WP2uvrA(pKM101) in the presence and absence of an exogenous mammalian oxidative metabolism system (S9-mix). The maximum concentration tested and […]
Compound 6a was tested in a bacterial mutation screening assay (Ames test) with […]
Compound 7a was tested in a bacterial mutation screening assay (Ames test) with […]
as §3

[11] = Solubility in fasted simulated intestinal fluid (FaSSIF); conditions: for FaSSIF solubility: fasted simulated intestinal fluid; for solubility: fasted simulated intestinal fluid (FaSSIF), fassif
[12] = tested on: mouse lymphoma cells; test: Mouse lymphoma assay; conditions: for MF (Mutation Frequency) / RTG (Relative Total Growth): positive control
Procedure: oxidative metabolism system (S9-mix). […]
The maximum […]
concentrations analysed were 410.45 µg/mL (1 mM, the maximum concentration in accordance with current guidelines and 100 µg/mL (limited by toxicity), for the 3 and […]
The mouse lymphoma screen was carried out using test methodology based on established procedures for in vitro gene mutation testing17,18,19,20. […]

[13] = tested on: L. donovani promastigotes; test: microbe, parasite or virus in culture; type: cell-based, Leishmania donovani; conditions: read-out: EC50
Procedure: 9. Mode of action studies a. Cell lines and culture conditions […]
c. Generation of drug-resistant parasites […]
donovani in the continuous presence of this compound. Starting at a sub-lethal […]
After a total of 120 days in
Genomic DNA was harvested from three independently generated L. donovani resistant clones and an age match control, as previously described27. PCR was performed using Platinum PCR Supermix (Invitrogen), as per manufacturer’s […]
generated using primers SubunitB4FW and SubunitB4RV, then sequenced using primer SubunitB4FW (Table S6). To sequence the β5 subunit (LdBPK_361730.1), an […]
sequenced using primer SubunitB5FW. PCR amplification and DNA sequencing were performed in triplicate for each independently generated cell line. The Leishmania donovani BPK282A1 sequences of the two subunits were identified in TriTrypDB and […]
e. Generation of overexpression constructs and LdBOB transgenic cell lines The genes encoding the mutated versions of the β4 (LdBPK_360340.1) and the β5 […]
parasites, were synthesised (GeneArt, Thermo Fischer Scientific). The synthetic genes, flanked by BamHI sites were cloned into the equivalent site of pIR1-SAT. The accuracy of all assembled constructs was verified by sequencing.
Mid-log-phase L. donovani promastigotes (LdBOB) were transfected with overexpression constructs using the Human T-Cell Nucleofector kit and the Amaxa Nucleofector electroporator (program V-033). Following transfection, cells were […]
to appropriate drug selection (100 µg/mL nourseothricin). Cloned cell lines were […]
selection for one passage prior to experiments. […]

[14] = tested on: chymotrypsin-like activity of the L. donovani proteasome; test: biochemical; set-up: species or system Leishmania donovani; conditions: lysates from RES II and WT parasites
Procedure: An in vitro assay was developed that enabled the chymotrypsin-like activity and additional proteolytic activities associated with the proteasome to be directly monitored within proteasome-enriched parasite cell lysates. Likewise, human proteasome from two sources (i.e., commercially pure 26S and enriched proteasome fractions from THP-1 lysates) was tested using the same biochemical assays.
Proteasome enrichment by ultracentrifugation
The protocol described by Kisselev et al.34 was adapted to enrich the proteasomes present in L. donovani and THP1 crude extracts. L. donovani or THP1 cells were resuspended in sucrose buffer (50 mM Tris buffer pH 7.5, 5 mM Magnesium chloride, 1 mM EDTA, 50 mM NaCl, 250 mM sucrose, 2 mM ATP, 1 mM DTT) and lysed by nitrogen cavitation for 15 min (110 bars of 1500 psi). Lysates were centrifuged at 20,000g for 30 min at 4 °C and supernatants containing soluble protein were subjected to an ultracentrifugation step at 300,000g for 2h at 4 °C. The resulting proteasome-containing pellets were resuspended in sucrose buffer and left on ice for 30 min to complete solubilization. Samples were centrifuged for 10 min at 20,000 g to remove insoluble material. Proteins contained in supernatant (proteasome enriched fraction) were measured by Bradford.
Proteasome activity assays
Compounds were dispensed into black 384-well assay plates (Greiner) by acoustic dispensing (LabCyte ECHO). For potency determinations, eleven-point, one in three dilution curves were generated, with a top concentration of 100 µM. Three proteasome activities were measured using a commercially available indirect enzyme-based luminescent assay kit (Promega) with Suc-LLVY-aminoluciferin, Z-LRR-aminoluciferin and Z-nLPnLD-aminoluciferin used as substrates for chymotrypsin-like, trypsin-like and caspase-like activities, respectively. In addition to proteasome samples: L. donovani and THP1-enriched proteasomes, commercially available human purified 26S proteasome (Boston Biochem) was also assessed.

[15] = with S9-mix, dose level 5 per plate
[16] = with S9-mix, dose level 5 per plate, positive control
[17] = without S9-mix, dose level 50 per plate
[18] = without S9-mix, dose level 2 per plate

With `Nc1ccc2cc3ccccc3cc2c1` [Compound 2-AAN, 2-Aminoanthracene, reference compound] the “Mean revertants per plate” value [1, 15] was 490.5, the “Ratio treated / solvent” value [1, 15] was 31.6 and the “Mean revertants per plate” value [2, 15] was 4441.0. The “Ratio treated / solvent” value [2, 15] was 33.6, the “Mean revertants per plate” value [3, 16] was 153.0 and the “Ratio treated / solvent” value [3, 16] was 6.7. The “Mean revertants per plate” value [4] was 1650.5 and the “Ratio treated / solvent” value [4] was 11.1.

In the case of `O=[N+]([O-])c1ccc2c(c1)Cc1ccccc1-2` [Compound 2NF, 2-Nitrofluorene, reference compound], the “Mean revertants per plate” value [5] is reported as 417.5 and the “Ratio treated / solvent” value [5] is reported as 20.5.

With `CCOc1cnc2nc(-c3cccc(NC(=O)c4ccco4)c3)cn2c1` [Compound 3] the solubility [6] was 7 µg/mL (≈ 20.1 µM), the EC50 [7] was over 50 µM and the CLint [8] was 1.8 mL/min/g. The “CLint (intrinsic clearance when incubated with mouse liver microsomes)” value [8] was 1.8 mL/min per gram and the EC50 [9] was 4.2 µM.

Work on `CCOc1cnc2nc(-c3cccc(NC(=O)N4CCCC4)c3)cn2c1` [Compound 4] yielded a solubility [6] of 7 µg/mL (≈ 19.9 µM), an EC50 [7] of over 50 µM and a CLint [8] of 0.59 mL/min/g. For the same molecule, the “CLint (intrinsic clearance when incubated with mouse liver microsomes)” value [8] was 0.59 mL/min per gram and the EC50 [9] was 3.3 µM.

`O=C(Nc1cccc(-c2cn3cc(N4CCOCC4)cnc3n2)c1)N1CCCC1` [Compound 5] gave a solubility [6] of 43 µg/mL (≈ 110 µM), an EC50 [7] of over 50 µM and a CLint [8] of 0.76 mL/min/g. For the same molecule, the “CLint (intrinsic clearance when incubated with mouse liver microsomes)” value [8] was 0.76 mL/min per gram and the EC50 [9] was 8.2 µM.

In the case of `O=C(Nc1ccc(F)c(-c2cn3cc(-c4ccccc4)cnc3n2)c1)N1CCCC1` [Compound 6], the solubility [6] is reported as 8 µg/mL (≈ 19.9 µM), the AMES [10] is reported as “not mutagenic; also recorded: negative” and the EC50 [7] is reported as over 50 µM. For the same molecule, the CLint [8] was 2.6 mL/min/g, the FaSSIF solubility [11] was “poor solubility” and the solubility [11] was 4 µg/mL (≈ 9.96 µM). The EC50 [9] was 0.15 µM.

For `O=C(Nc1ccc(F)c(-c2cn3cc(N4CCOCC4)cnc3n2)c1)N1CCCC1` [Compound 6a], the solubility [6] was 39 µg/mL (≈ 95 µM), the AMES [10] was “mutagenic in strain TA1537 when tested in the absence of S9-mix; also recorded: positive” and the EC50 [7] was over 50 µM. The CLint [8] was under 0.5 mL/min/g, the FaSSIF solubility [11] was “poor solubility” and the solubility [11] was 6 µg/mL (≈ 14.6 µM). For the same molecule, the EC50 [9] was 0.6 µM and the “improvement of intramacrophage potency” value ([9]; relative to 5) was over 10 fold.

With `Nc1c2ccccc2nc2ccccc12` [Compound 9-AAC, 9-Amino Acridine, reference compound] the “Mean revertants per plate” value [3, 17] was 249.5 and the “Ratio treated / solvent” value [3, 17] was 17.4.

In the case of `Cc1c2ccccc2c(C)c2c1ccc1ccccc12` [DMBA, 7,12-dimethylbenz[a]anthracene, reference compound], the “Positive / Negative” value ([12]; 3 hour +S9 treatment) is reported as “Positive”, the “MF (Mutation Frequency)” value ([12]; 3 hour +S9 treatment) is reported as 1783.48 ×10-6 and the “RTG (Relative Total Growth)” value ([12]; 3 hour +S9 treatment) is reported as 28%.

`Cc1nc(C)c(C(=O)Nc2ccc(F)c(-c3nc4ncc(-c5ccccn5)cn4n3)c2)o1` [GNF6702, reference compound] showed an EC50 ([13]; RES I (compound 7-resistant clone)) of 527 ± 12 nM, an EC50 ([13]; RES III (compound 7-resistant clone)) of 768 ± 38 nM and an EC50 ([13]; WT promastigotes) of 1.8 ± 0.002 nM.

For `COS(C)(=O)=O` [MMS, methylmethansulfonate, reference compound], the “Positive / Negative” value ([12]; 24 hour -S9 treatment) was “Positive”, the “MF (Mutation Frequency)” value ([12]; 24 hour -S9 treatment) was 938.58 ×10-6 and the “RTG (Relative Total Growth)” value ([12]; 24 hour -S9 treatment) was 73%.

In the case of `[N-]=[N+]=[N-].[Na+]` [NaN3, Sodium Azide, reference compound], the “Mean revertants per plate” value [1, 18] is reported as 1128.5, the “Ratio treated / solvent” value [1, 18] is reported as 44.5 and the “Mean revertants per plate” value [2, 18] is reported as 1050.0. For the same molecule, the “Ratio treated / solvent” value [2, 18] was 10.1.

With `CC(C)C[C@H](NC(=O)[C@H](CCc1ccccc1)NC(=O)CN1CCOCC1)C(=O)N[C@@H](Cc1ccccc1)C(=O)N[C@@H](CC(C)C)C(=O)[C@@]1(C)CO1` [carfilzomib, reference compound] the “inhibition of chymotrypsin-like activity, RES II vs WT lysates” value [14] was “equal potency”.
